Experimental data taken from patent publication US20260097047A1, “Small molecule inhibitors of the ribosome biogenesis factor NVL2” (Board of Regents, The University of Texas System, priority 2023, published 2026).
Blank lines part the entries; values can stand above or below the compound they belong to.

Legend:
[1] = test system: HCT116 NVL^P307T cells; assay: Cell viability in compound-resistant HCT116 NVL^P307T cells; type: cell-based, human
Description: Assessing the ability of NVL2 inhibitors to selectively kill WT versus NVL2^mut HCT116, block ribosome biogenesis and induce p53. We evaluate analogs in the colorectal cancer cell line HCT116 and already available compound-resistant clones. One clone has a mutation in the compound binding site (NVL2^R403W) and another clone (NVL2^P307T) has a mutation distant from the binding site that confers resistance through an unknown effect. Based on our results, analogs that kill HCT116 cells via NVL2 inhibition (on-target) have reduced potency in compound-resistant HCT116 mutant clones. Our analogs have been counter-screened against the NVL2 compound-resistant mutant clones with fold resistance range between 10-100 fold (most analogs 20-50 fold). This counter screen provides a strategy for identifying off-target toxins.
From whole exome sequencing, we identified variants that were acquired during IAA-induced mutagenesis with the hypothesis that genes related to resistance will be mutated in multiple clones. Two genes contained acquired variants in at least 3 of the 15 selected clones: TERT, mutated in 3 of 15 clones, and NVL, mutated in all 15 clones. […] In sum, 57 out of 59 unique clones harbored NVL mutations. The majority of mutations clustered within the D1 AAA+ ATPase domain and frequently affecting the same codons. To test whether these mutations are sufficient for MM017 resistance, we used CRISPR-Cas9 to knock-in two of the most resistant mutations (NVL^P307T, NVL^R403W) and a mutation with intermediate resistance (NVL^H304R). Transfection of cells with sgRNAs targeting these NVL residues in addition to a mutation-encoding repair template yielded an increased rate of resistance when compared to mock treatments.
(§1) HCT116 cells were transfected with TransIT-LT (Mirus #MIR2304) according to manufacturer's protocol with a guide RNA (either mock or NVL targeting) in the px330 vector (Addgene, #42230), and 10 nM single stranded deoxyoligonucleotide encoding a specific NVL mutation (see below for specific sequences). 72 hours after transfection, cells were selected by MM017 treatment. The resulting cells were evaluated by cresyl violet staining or collected and the relevant NVL mutations were analyzed by either amplicon or sanger sequencing.
Cell viability assay: In 96-well assay plates (Corning #2903), 2,000 cells were plated per well in 100 μL of medium and allowed to adhere overnight. The next day, compounds suspended in DMSO were dispensed to the assayed wells using a D300e Digital Dispenser (Tecan). All wells were normalized to 0.5% DMSO. 72 hours after incubation at 37° C. in 5% CO2, cell viability was assayed using an ATP-based luminescent viability assay, CellTiter-Glo (Promega #G8462). Substrate was mixed 1:1 with phosphate-buffered saline (PBS) supplemented with 1% Triton X-100, and 40 μL of this mixture was added to the assay wells. Plates were shaken on a microplate shaker for 10 minutes at room temperature. Luminescence (CellTiter-Glo) was recorded using a Synergy 2 microplate reader (BioTek). In Prism 9 software (GraphPad), ten-point dose response curves were plotted with baseline-correction to the vehicle control well, and IC50 values were calculated by curve fitting using asymmetric (five parameter), least squares fit.

[2] = test system: HCT116 cells; assay: Cell viability assay (CellTiter-Glo, 72 hours) in HCT116 human colorectal cancer cells; type: cell-based; conditions: Homo sapiens, HCT-116; read-out: IC50, proliferation of HCT116 cells
Outline: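 Ten-point IC50 came from an asymmetric five-parameter fit of luminescence corrected to vehicle wells. ATP content was measured by CellTiter-Glo 72 h after dosing at 37 °C. Cells were seeded at 2,000/well the day before, with 0.5% DMSO in all wells.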

[3] = target: T1, NVL (Homo sapiens, UniProt O15381); assay: Photo-crosslinking, affinity purification and probe displacement of NVL in cells; type: binding; set-up: endogenous in cells; conditions: UV light
T1 sequence (O15381 1-856): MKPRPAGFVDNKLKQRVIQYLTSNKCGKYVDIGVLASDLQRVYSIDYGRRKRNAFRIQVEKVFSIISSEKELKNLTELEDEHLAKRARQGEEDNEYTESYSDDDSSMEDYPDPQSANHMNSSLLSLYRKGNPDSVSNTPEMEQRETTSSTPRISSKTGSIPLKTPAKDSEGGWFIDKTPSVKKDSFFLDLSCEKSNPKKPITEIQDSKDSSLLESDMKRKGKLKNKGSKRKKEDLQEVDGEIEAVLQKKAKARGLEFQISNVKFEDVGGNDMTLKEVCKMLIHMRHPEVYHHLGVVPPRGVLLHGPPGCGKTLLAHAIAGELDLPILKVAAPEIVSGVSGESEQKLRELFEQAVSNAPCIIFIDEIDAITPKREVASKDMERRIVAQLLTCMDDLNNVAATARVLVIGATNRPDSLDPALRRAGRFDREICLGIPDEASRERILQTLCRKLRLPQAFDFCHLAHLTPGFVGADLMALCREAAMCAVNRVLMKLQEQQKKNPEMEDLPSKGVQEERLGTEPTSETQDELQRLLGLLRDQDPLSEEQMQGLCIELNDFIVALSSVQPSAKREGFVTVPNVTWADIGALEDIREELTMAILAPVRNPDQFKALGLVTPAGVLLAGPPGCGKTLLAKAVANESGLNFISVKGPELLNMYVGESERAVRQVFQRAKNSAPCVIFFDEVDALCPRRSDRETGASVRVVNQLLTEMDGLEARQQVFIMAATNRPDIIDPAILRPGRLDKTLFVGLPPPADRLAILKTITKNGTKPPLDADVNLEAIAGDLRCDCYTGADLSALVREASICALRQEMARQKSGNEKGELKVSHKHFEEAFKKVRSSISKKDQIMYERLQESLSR
Description: To test whether NVL2 mutations prevent compound binding, we synthesized MM0514, a crosslinker derivative of MM017. MM0514 contains an aryl azide, and thus is capable of covalently modifying target proteins following exposure to UV light. MM0514 also contains an alkyne group providing a “handle” to purify bound proteins using click chemistry. Critically, MM0514 retains on-target activity to HCT116 cells since NVL2^R403W mutant cells are resistant. We crosslinked either parental or NVL2^R403W HCT116 cells to MM0514 and analyzed NVL2 binding. […] To characterize the binding site, we solved the cryo-EM structure of NVL2 with MM017. MM017 binds to a single site in the asymmetric hexamer near the D subunit. Consistent with our binding data, the mutations map near the binding site, including R403, which is mutated to tryptophan in a resistant clone and predicted to prevent binding of MM017 or related analogs. The cryo-EM structure of NVL2 with MM017 provides further evidence of target identification and also a tool for optimizing a bioavailable compound.
To assess whether MM017 binds directly to NVL in cells, we used a MM017 crosslinker (Probe compound (2), Table A) that is UV-activatable and contains an alkyne that can be coupled to biotin for affinity purification. […]

[4] = test system: cleaved caspase-3; assay: Cleaved caspase-3 (apoptosis), HCT116 control and p53 KO cells; type: cell-based, human
Description: The upregulation of p53 and its effector p21 can arrest cell growth or induce cell death through apoptosis. […] Next, we addressed whether cell death was mediated by an apoptotic pathway by assaying for cleaved caspase-3, a bona fide marker of apoptosis.

[5] = test system: NVL-AID; assay: Viability of NVL^AID/AID cells on auxin-induced NVL degradation; type: cell-based, human
Description: To study the effect of NVL depletion, we engineered a C-terminal FLAG-epitope auxin-inducible degron (AID) tag into NVL in cells that also express the plant E3 ligase TIR1.

[6] = test system: HCT116 control and p53 KO cells; assay: Cell death by loss in membrane permeability, HCT116 control and p53 KO cells; type: cell-based, human; conditions: five-day treatment
[7] = test system: p53 KO and p21 KO HCT116 cells; assay: Growth competition of p53 or p21 knockout versus control HCT116 cells; type: cell-based, human
Description: To better understand how inhibition of NVL by MM017 leads to cell death, we performed a genome wide pooled CRISPR/Cas9 knockout screen in HCT116 cells using a library of guide RNAs targeting 19,114 genes. Cells were pulsed intermittently with vehicle or MM017 over 21 days, at which point MM017 treated cells had undergone 9.79 fewer population doublings. Massively parallel sequencing of PCR products amplified from genomic DNA was used to determine relative levels of sgRNA sequences to infer the relative impact of each gene on compound sensitivity. […] To confirm whether p53 and p21 are required for the anti-proliferative activity of MM017, we performed a growth competition experiment between cells expressing ZsGreen with either p53 or p21 knockout (KO) and control cells expressing mCherry. Without treatment, the ratio between green and red cells was unchanged over time.

[8] = test system: HCT116 NVL^R403W cells; assay: Cell viability counter-screen in compound-resistant HCT116 NVL^R403W cells; type: cell-based, human; conditions: NVL^P307T, NVL^R403W or NVL^H304R cells
Procedure: Design and synthesis of benzothiazepine-based NVL inhibitors. […] Analogs were evaluated against the colorectal cancer cell line HCT116, and counter-screened against a compound resistant NVL2^R403W clone. Cytotoxicity in wild-type HCT116 was determined. […] Initial SAR focused on exploring the replacement of the furan ring of initial dibenzothiazepinone hit MM017. We first explored a wide variety of mono- and di-substituted phenyl rings, including a broad spectrum of functionality (F, Cl, alkyl, alkoxy, fluoroalkoxy, CN, formamide, S(O) Me, carboxyl, . . . ). […]
as §1, with “72 hours after transfection, cells were selected by MM017 treatment.” left out
Cell viability assay: In 96-well assay plates (Corning #2903), 2,000 cells were plated per well in 100 μL of medium and allowed to adhere overnight. […] Luminescence (CellTiter-Glo) was recorded using a Synergy 2 microplate reader (BioTek). […]

[9] = test system: serine 15 phosphorylated p53; assay: p53 serine 15 phosphorylation (DNA damage response marker); conditions: MM017 up to 10 μM
Description: A biochemical marker for activation of the DNA damage response is phosphorylation of serine 15 of p53, which results in increased p53 protein (41). Thus, we compared the impact of MM017, oxaliplatin, and CX-5461 on both p53 upregulation and p53 serine 15 phosphorylation.

[10] = test system: p53 and p21; assay: p53 and p21 protein levels in HCT116 cells; type: cell-based, human
Description: (§2) Inhibition of 60S ribosome biogenesis is known to induce the stability and upregulation of p53, which could serve as a potential pharmacodynamics marker for MM017 in HCT116 cells. […] We used PRISM (Broad Institute) to evaluate the selectivity of MM017 across 902 cancer cell lines and then correlated this selectivity to 1,215 clinical and pre-clinical compounds in the PRISM database. […] These observations indicate that oxaliplatin and carmofur, like MM017, target ribosome biogenesis.

[11] = test system: 902 cancer cell lines; assay: PRISM screen across 902 cancer cell lines; type: cell-based; conditions: 902 cancer cell lines, 1,215 compounds
Description: as §2
To nominate genetic predictors of MM017 sensitivity across different cancer types, we performed a PRISM screen across 902 cancer cell lines with known genotypes (31). […] These findings are consistent with the isogenic CRISPR screen and indicate that p53 is a critical effector for MM017 in cancer cells from multiple lineages and with differing genotypes.

- IC50 [2]: 470 nM
SMILES: C#CCOCCN1C(=O)c2ccccc2Sc2cc(NC(=O)c3ccc(N=[N+]=[N-])cc3)ccc21 [Probe compound 2, 4-Azido-N-(11-oxo-10-(2-(prop-2-yn-1-yloxy)ethyl)-10, 11-dihydro-dibenzo[b,f][1,4]thiazepin-7-yl)benzamide]
- resistance of NVL^P307T cells [1]: comparatively resistant
- NVL crosslinked to / purified with probe [3]: only detected in conditions that included both the MM017-probe and UV light

SMILES: CN[C@@H]1C[C@H]2O[C@@](C)([C@@H]1OC)n1c3ccccc3c3c4c(c5c6ccccc6n2c5c31)C(=O)NC4 [Staurosporine, reference compound]
- cleaved caspase-3 [4]: robust caspase activation in both control and p53 KO cells

SMILES: O=C(O)Cc1c[nH]c2ccc(-c3ccccc3)cc12 [Ph-IAA, 5-Phenyl-indole-3-acetic acid]
- viability of NVL^AID/AID cells [5]: reduced viability in a dose-dependent manner

SMILES: CC(=O)O[C@H]1C(=O)[C@@]2(C)[C@H]([C@H](OC(=O)c3ccccc3)[C@]3(O)C[C@H](OC(=O)[C@H](O)[C@@H](NC(=O)c4ccccc4)c4ccccc4)C(C)=C1C3(C)C)[C@]1(OC(C)=O)CO[C@@H]1C[C@@H]2O [paclitaxel, reference compound]
- cell death in p53 KO versus control cells [6]: cell death irrespective of p53
- enrichment of p53 or p21 KO cells in growth competition [7]: no competitive advantage
- sensitivity of NVL mutant cells compared to NVL^WT [8]: equally sensitive

SMILES: O=C1[O][Pt]2([NH][C@@H]3CCCC[C@H]3[NH]2)[O]C1=O [oxaliplatin, reference compound]
- serine 15 phosphorylated p53 [9]: dose-dependent increase in phosphorylated p53
- p53 levels in parental HCT116 cells [10]: dose-dependent increase in the levels of p53

SMILES: CCCCCCNC(=O)n1cc(F)c(=O)[nH]c1=O [carmofur]
- correlation (r) of selectivity with MM017 [11]: 0.53
